Measurements: patent US20060073504A1, “Treatment of pain by inhibition of caspase signaling” (The Regents of the University of California, priority 2004, published 2006)
Entries after “also recorded” stand apart in the source; their conditions may differ.

Columns and labels:
Assay type in all cases: in vivo, rat
[1] = test system: mechanical hyperalgesia induced by vincristine (VCR); experiment: Vincristine-induced mechanical hyperalgesia, paw-withdrawal threshold; conditions: inhibitor 5 μg i.d. hind paw, day 5 after VCR 200 μg/kg i.v., read 30 min after inhibitor; p<0.05
Procedure: (§1) Experiments were performed on 220-260-g male Sprague-Dawley rats (Charles River, Fremont, Calif., USA). Rats were housed in groups of 2 under a 12-h light-dark cycle. Food and water were available ad libitum. Experiments were carried out in accordance with NIH regulations for the care and use of animals in research, and under approval of the Institutional Animal Care and Use Committee of the University of California, San Francisco.
(§2) The nociceptive mechanical flexion reflex was quantified with an Ugo Basile Analgesymeter® (Stoelting, Chicago, Ill.), which applies a linearly increasing mechanical force to the dorsum of the rat's hind paw. Mechanical paw-withdrawal thresholds were determined in control (saline treated) and test agent treated rats. Four readings were taken at 5-min intervals and the mean of the last three readings were used to define the baseline paw-withdrawal threshold (Aley and Levine, 1999; Aley et al., 2001). The time at which the readings were taken was based on the time course of each test agent (described in results).
(§3) Algesic agents employed in this study were: vincristine sulfate (VCR), 2′,3′-dideoxycytidine (ddC), streptozotocin sulfate (STZ), tumor necrosis factor-α (TNFα) prostaglandin E2 (PGE2), epinephrine (Epi) (Sigma, St. Louis, Mo.) and N-Acetyl Sphingosine (C2-Ceramide obtained from Upstate USA, Inc, Lake Placid, N.Y.). Doses of the algesic agents were, VCR (200 μg/kg), ddC (50 mg/kg), STZ (50 mg/kg), PGE2 (100 ng/paw) and Epi (100 ng/paw). A single i.v. injection of VCR (200 μg/kg) produced significant mechanical hyperalgesia (>30 % reduction in paw-withdrawal threshold). This effect reached maximum on day 5 following the drug administration and was persistent for more then 15 days (Joseph, 2003 #5). STZ (50 mg/kg, i.v.×1), induced diabetes in rats, as indicated by with a blood glucose level >300 mg/dL, and a nociceptive threshold reduction (>30%). This effect reached maximum on day 3 following administration of the neuropathy inducing drug and was persistent for over 15 days (Joseph, 2003 #4).
(§4) TNFα, C2-Ceramide, PGE2, Epi, and all the inhibitors (see Table I) were administered intradermally (i.d.) on the dorsal surface of the hind paw in a volume of 2.5-5.0 μl, via a 30-gauge hypodermic needle. In co-injection experiments, agents were separated by very small air pockets, in one syringe, so that they could be administered with a single cutaneous needle penetration. As a control, all inhibitors were studied for independent effects on baseline nociceptive threshold. Inhibitors were either co-injected (with TNFα, C2-Ceramide, PGE2, and Epi) or administered on day five following the administration of VCR, ddC and STZ. Drugs were either dissolved in saline (VCR, ddC, STZ, TNF-α, PGE2, Epi) or in 10% DMSO (C2-Ceramide and inhibitors).
(§5) Group data are presented as % reduction in nociceptive threshold (mean+/±SEM) and comparisons between groups performed using Student's t-test (paired or unpaired, as appropriate). A probability of p<0.05 was considered statistically significant.
FIG. 2 depicts the effect of inhibitors of caspases, administered in the hind paw of the rat, on mechanical hyperalgesia induced by the cancer chemotherapy drug Vincristine (VCR). The effect of inhibitors of caspase 1, 2, 3, 8, 9, the non-selective broad-spectrum caspase inhibitor (NS) and the negative control for the non-selective broad-spectrum caspase inhibitor [NS (Con)] on the nociceptive paw-withdrawal thresholds were evaluated. Paw-withdrawal thresholds were measured on the 5th day after injection of VCR and 30 min after the administration of the inhibitors. N=8/group, *=p<0.05, with respect to the value prior to injection of the inhibitor.

[2] = test system: prostaglandin E2 (PGE2)-induced hyperalgesia; experiment: PGE2-induced mechanical hyperalgesia, inhibitor co-injected; conditions: co-injected with PGE2 100 ng/paw, read at 30 min
Procedure: as §1
as §2, with “results). […]” for “results).”
(§6) FIG. 7 depicts the effect of the non-selective caspase inhibitor on prostaglandin E2 (PGE2), epinephrine (Epi)-induced hyperalgesia. The caspase inhibitor was co-injected with PGE2 and epinephrine and the paw-withdrawal thresholds measured 30 min after the drug administration. […]

[3] = test system: mechanical hyperalgesia induced by TNF-α; experiment: TNFα-induced mechanical hyperalgesia, inhibitors co-injected; conditions: inhibitor 5 μg co-injected i.d. with TNFα 100 ng, read at 30 min; p<0.05
Procedure: as §1, §2
Inhibitors of caspases and neutral sphingomyelinase are described in Table I, which is repeated for convenience. The doses of TNFα (100 ng) and C2-Ceramide (10 μg) were based on dose response experiments performed as part of this study. VCR, STZ, and ddC were administered intravenously (i.v.) in a volume of 1 ml/kg, followed by 0.5 ml saline. Control rats received equal volume of saline. […]
FIG. 4 depicts the effect of inhibitors of caspases and sphingomyelinase on mechanical hyperalgesia induced by tumor necrosis factor alpha (TNF-α). The effect of inhibitors of caspase 1, 2, 3, 8, 9, the non-selective broad-spectrum caspase inhibitor (NS), the negative control for the non-selective broad-spectrum caspase inhibitor [NS (Con)], and the neutral sphingomyelinase inhibitor (GW4869) on the nociceptive paw-withdrawal thresholds of rats was evaluated. The inhibitors were co-injected with TNF-α and the paw-withdrawal thresholds measured 30 min after the drug administration. […]

[4] = test system: STZ-induced mechanical hyperalgesia; experiment: STZ (diabetes)-induced mechanical hyperalgesia, paw-withdrawal threshold; conditions: single test dose 5 μg i.d. hind paw, rats treated with STZ 50 mg/kg i.v.
Procedure: as §1, §2
Algesic agents employed in this study were: vincristine sulfate (VCR), 2′,3′-dideoxycytidine (ddC), streptozotocin sulfate (STZ), tumor necrosis factor-α (TNFα) prostaglandin E2 (PGE2), epinephrine (Epi) (Sigma, St. Louis, Mo.) and N-Acetyl Sphingosine (C2-Ceramide obtained from Upstate USA, Inc, Lake Placid, N.Y.). […]

[5] = test system: epinephrine (Epi)-induced hyperalgesia; experiment: Epinephrine-induced mechanical hyperalgesia, inhibitor co-injected; conditions: co-injected with Epi 100 ng/paw, read at 30 min
Procedure: as §1
as §2, with “results). […]” for “results).”
as §6

[6] = test system: mechanical hyperalgesia induced by 2′,3′-dideoxycytidine (ddC); experiment: ddC-induced mechanical hyperalgesia, paw-withdrawal threshold (Ugo Basile Analgesymeter); conditions: inhibitor 5 μg i.d. hind paw, day 5 after ddC 50 mg/kg i.v., read 30 min after inhibitor; p<0.05
Procedure: as §1, §2, §3, §4, §5
FIG. 1 depicts the effect of inhibitors of caspases administered in the hind paw of the rat, on mechanical hyperalgesia induced by the AIDS therapy drug 2′,3′-dideoxycytidine (ddC). The effect of inhibitors of caspase 1 (BACMK), 2 (Z-VDAD-FMK), 3 (Ac-DMQD-CHO), 8 (IETD-CHO), 9 (Z-LEHD-FMK.TFA), the non-selective broad-spectrum caspase inhibitor (NS) Z-VAD-FMK and the negative control for the non-selective broad-spectrum caspase inhibitor Z-FA-FMK [NS (Con)] on the nociceptive paw-withdrawal thresholds of rats were evaluated. Paw-withdrawal thresholds were measured on the 5th day after injection of ddC and 30 min after the administration of inhibitors. N=8/group, *=p<0.05, with respect to mechanical nociceptive threshold prior to injection of the inhibitor.

[7] = test system: mechanical hyperalgesia induced by ceramide; experiment: C2-ceramide-induced mechanical hyperalgesia, inhibitors co-injected; conditions: inhibitor 5 μg co-injected i.d. with C2-ceramide 10 μg, read at 1 hr; p<0.05
Procedure: as §1, §2
Inhibitors of caspases and neutral sphingomyelinase are described in Table I, which is repeated for convenience. […]
FIG. 6 depicts the effect of inhibitors of caspases on mechanical hyperalgesia induced by ceramide. […] The inhibitors were co-injected with ceramide and paw-withdrawal thresholds measured 1 hr after the drug administration. […]

[8] = test system: mechanical nociceptive threshold of normal/control rats; experiment: Independent effect of inhibitors on baseline mechanical nociceptive threshold in control rats; conditions: i.d. hind paw, data not shown
Procedure: as §1, §2
TNFα, C2-Ceramide, PGE2, Epi, and all the inhibitors (see Table I) were administered intradermally (i.d.) on the dorsal surface of the hind paw in a volume of 2.5-5.0 μl, via a 30-gauge hypodermic needle. […]

**Q.** Which “effect on vincristine-induced mechanical hyperalgesia” value [1] does the source give for “Z-Val-Ala-Asp(OMe)-Fluoro methyl ester [Z-VAD-FMK]” here?
**A.** markedly attenuated; also recorded: moderately attenuating pain

**Q.** What about the “effect on PGE2-induced hyperalgesia” value [2] of the same substance?
**A.** had no effect on the hyperalgesia

**Q.** What about the “effect on TNFα-induced hyperalgesia” value [3] of the same substance?
**A.** markedly attenuated

**Q.** And the “effect on STZ-induced mechanical hyperalgesia” value [4]?
**A.** did not produce significant attenuation of hyperalgesia; also recorded: having no effect

**Q.** What about the “effect on Epi-induced hyperalgesia” value [5] of the same substance?
**A.** had no effect on the hyperalgesia

**Q.** What about the “effect on ddC-induced mechanical hyperalgesia” value [6] of the same substance?
**A.** markedly attenuated; also recorded: markedly attenuating pain-related behavior

**Q.** And the “effect on C2-ceramide-induced hyperalgesia” value [7]?
**A.** significantly less hyperalgesia

**Q.** What about the “effect of inhibitor alone on mechanical nociceptive threshold” value [8] of the same substance?
**A.** had no effect on mechanical nociceptive threshold
